Experimental data from patent US12064402B2, “Binge behavior regulators” (Clearmind Medicine Inc., priority 2014, dated 2024).

How the values were obtained:
[1] = amount of alcoholic beverage drunk in a binge session after the drinking regulator; type: in vivo; settings: 70 mg of drinking regulator; for amount of beer drunk in a binge session: reduced from 1.5 liter; for amount of wine drunk in a binge session: reduced from 1000 ml
Procedure: In exemplary embodiments, administration of the amount of 70 mg of drinking regulator selected form Compound 1 or Compound 2 described herein reduced the amount of beer drunk in a binge session from 1.5 liter to 0.5 liter, or the amount of wine drunk in a binge session from 1000 ml to 250 ml.

[2] = over six months, when used with counseling; cited from earlier work

SMILES | amount of beer drunk in a binge session [1] [L] | amount of wine drunk in a binge session [1] [mL] | cut drinking [2] [%]
COc1ccc2c(c1)CC(N)C2 (centres unmarked) [Compound 1, 5-methoxy-2-aminoindan] | 0.5 | 250 | –
C=C1CC[C@@]2(O)[C@H]3Cc4ccc(O)c5c4[C@@]2(CCN3CC2CC2)[C@H]1O5 [Nalmefene] | – | – | 61
COc1cc2c(cc1OC)CC(N)C2 [Compound 2, 5,6-dimethoxy-2-aminoindan] | 0.5 | 250 | –
